Reference: EP4653441A1, “SALT OF ANTIDEPRESSANT COMPOUND, AND PREPARATION METHOD THEREFOR, PHARMACEUTICAL COMPOSITION CONTAINING SAME AND USE THEREOF” (Vigonvita Life Sciences Co., Ltd., priority 2023, dated 2024)
Converted amounts (≈) assume the structure as drawn. Where two headings read alike, the source gives them in different places.

What was measured:
[1] = Hygroscopicity measurement; type: physicochemical; settings: 25°C, 92.5% RH, 24 hours
Description: (§1) 3. Hygroscopicity Measurement Method: The test sample was placed for 24 hours at 25°C and 92.5% RH, and then the weight gain by moisture absorption was measured. 4. Stability Test Method: The test sample was placed in a suitable clean container for 14 days under a high temperature (60°C), or a high humidity (40°C, a relative humidity of 75%) condition, and it was sampled on day 0 and day 14 to detect the purity and impurities of the test sample.

[2] = Solubility test in water by HPLC (external standard); type: physicochemical; settings: 37°C, shaken 30 minutes
Description: 1. X-ray Powder Diffraction (XRPD) Test Method: • Instrument: Bruker D8 advance X-ray polycrystalline diffractometer; Target: Cu-Kα (40 kV, 40 mA); Sample-to-detector distance: 30 cm; Scanning type: two-axis linkage; Scanning step width: 0.02°; Scanning range: 3°~40°; Scanning step: 0.1 s. • In general, diffraction angles (2θ values) in XRPD may produce errors within a range of ± 0.2°, and thus numerical values relating to diffraction angles in the present invention should be understood to also encompass numerical values within a range of about ± 0.2°. Therefore, the present invention not only covers the crystal form that completely matches the characteristic signal peak in the specific XRPD pattern, but also covers the crystal form that has an error of about ± 0.2° with the characteristic signal peak in the specific XRPD pattern. 2. Solubility Test Method: About 20 mg of the test sample was taken and placed in a 1.5 ml sample tube, added with 1 ml of water, then placed in a shaker, shaken at 37°C for 30 minutes, the sample tube was taken and centrifuged in a centrifuge for 2 minutes, and the supernatant was taken for HPLC analysis.

[3] = Stability test of the salts (high temperature / high humidity, 14 days); type: physicochemical
Description: as §1

[4] = molecular target: serotonin reuptake (Homo sapiens, UniProt P31645); settings: read-out: serotonin reuptake inhibition concentration (IC50); cited from earlier work
Chain of serotonin reuptake (P31645 whole entry): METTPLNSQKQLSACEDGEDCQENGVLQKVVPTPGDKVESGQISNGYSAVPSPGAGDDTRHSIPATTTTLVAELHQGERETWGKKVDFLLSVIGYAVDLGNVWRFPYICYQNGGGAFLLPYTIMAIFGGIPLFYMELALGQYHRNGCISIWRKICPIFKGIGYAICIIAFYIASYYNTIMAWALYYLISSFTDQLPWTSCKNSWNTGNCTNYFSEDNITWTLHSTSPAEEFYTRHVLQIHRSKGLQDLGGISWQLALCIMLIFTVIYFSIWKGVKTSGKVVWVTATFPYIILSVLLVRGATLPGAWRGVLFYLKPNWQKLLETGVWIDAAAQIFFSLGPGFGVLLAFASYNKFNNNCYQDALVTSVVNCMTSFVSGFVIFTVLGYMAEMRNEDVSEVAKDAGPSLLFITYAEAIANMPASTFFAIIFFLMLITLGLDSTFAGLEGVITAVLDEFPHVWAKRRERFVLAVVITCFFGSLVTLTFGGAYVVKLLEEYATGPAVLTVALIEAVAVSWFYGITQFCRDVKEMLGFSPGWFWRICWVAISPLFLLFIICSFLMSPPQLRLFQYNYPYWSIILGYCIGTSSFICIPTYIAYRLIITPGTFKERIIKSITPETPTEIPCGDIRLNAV

[5] = molecular target: T1, 5-HT3 receptor (Homo sapiens, UniProt P46098); settings: cited from earlier work
T1 sequence (P46098 24-478): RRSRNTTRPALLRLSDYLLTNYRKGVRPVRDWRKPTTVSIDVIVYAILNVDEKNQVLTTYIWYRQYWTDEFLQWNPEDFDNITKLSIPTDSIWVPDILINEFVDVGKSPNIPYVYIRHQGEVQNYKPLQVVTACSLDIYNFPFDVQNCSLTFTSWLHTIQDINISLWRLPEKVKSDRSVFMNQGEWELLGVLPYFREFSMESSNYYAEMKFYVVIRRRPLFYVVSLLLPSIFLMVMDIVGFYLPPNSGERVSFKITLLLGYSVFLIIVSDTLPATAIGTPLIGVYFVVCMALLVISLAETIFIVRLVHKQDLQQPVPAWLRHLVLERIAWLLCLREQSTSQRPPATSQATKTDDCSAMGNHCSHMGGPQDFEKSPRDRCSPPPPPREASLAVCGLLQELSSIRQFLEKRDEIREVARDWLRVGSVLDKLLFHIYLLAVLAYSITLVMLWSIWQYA

[6] = cited from earlier work
[7] = 60°C/14 days (aluminum foil pouch)

SMILES	weight gain by moisture absorption [1]	Solubility [2] [mg/mL]	Total Impurity (%) ([3]; 40°C/75% RH/14 days)	Total Impurity (%) ([3]; 60°C/14 days)	Total Impurity (%) [3, 7] [%]	Total Impurity (%) ([3]; Day 0)	also measured
CN1CC2CN(c3ccc4ccccc4c3)CC2C1 (single isomer, unassigned) [Example 1, 2-methyl-5-(naphthalen-2-yl)octahydropyrrolo[3,4-c]pyrrole]	1.6%	>100	0.15	0.19	0.19	0.13	
CN1CC2CN(c3ccc4ccccc4c3)CC2C1 (single isomer, unassigned) [Example 2, 2-methyl-5-(naphthalen-2-yl)octahydropyrrolo[3,4-c]pyrrole]	0.74%	11 (≈ 43.6 mM)	0.31	0.37	0.36	0.35	
CN1CC2CN(c3ccc4ccccc4c3)CC2C1 (single isomer, unassigned) [Example 4, 2-methyl-5-(naphthalen-2-yl)octahydropyrrolo[3,4-c]pyrrole]	6.74%	3.5 (≈ 13.9 mM)	0.44	0.22	0.24	0.21	
CN1CC2CN(c3ccc4ccccc4c3)CC2C1 (single isomer, unassigned) [Example 5, 2-methyl-5-(naphthalen-2-yl)octahydropyrrolo[3,4-c]pyrrole]	1.21%	4 (≈ 15.9 mM)					
CN1CC2CN(c3ccc4ccccc4c3)CC2C1 (single isomer, unassigned) [Example 6, 2-methyl-5-(naphthalen-2-yl)octahydropyrrolo[3,4-c]pyrrole]	1.26%						
CN1CC2CN(c3ccc4ccccc4c3)CC2C1 (single isomer, unassigned) [Example 7, 2-methyl-5-(naphthalen-2-yl)octahydropyrrolo[3,4-c]pyrrole]	0.64%	15 (≈ 59.4 mM)	0.17	0.18	0.20	0.14	
CN1CC2CN(c3ccc4ccccc4c3)CC2C1 (stereo not drawn) [Example 3, 2-methyl-5-(naphthalen-2-yl)octahydropyrrolo[3,4-c]pyrrole]	To be liquid						
CN1CC2CN(c3ccc4ccccc4c3)CC2C1 (stereo not drawn) [compound of formula (I), 2-methyl-5-(naphthalen-2-yl)octahydropyrrolo[3,4-c]pyrrole]							Solubility ([2]; listed as basic compound of formula (I)): Almost Insoluble; Total Impurity (%) ([3]; 40°C/75% RH/14 days, listed as Basic compoun d): 0.41%; Total Impurity (%) ([3]; 60°C/14 days (aluminum foil pouch), listed as Basic compoun d): 0.31%; Total Impurity (%) ([3]; 60°C/14 days, listed as Basic compoun d): 0.23%; Total Impurity (%) ([3]; Day 0, listed as Basic compoun d): 0.15%; IC50 [4]: < 10 nM; affinity for 5-HT3 receptor [5]: high affinity; Solubility [6]: low
